Test results from patent US9822342B2, “Method of efficiently inducing cardiomyocytes” (KYOTO UNIVERSITY, priority 2013, dated 2017).

How the values were obtained:
Type in all cases: cell-based, human
[1] = system: 201B7 cell line (iPS cells); assay: Cardiomyocyte induction, conventional method (comparative example); cTNT-positive cells by flow cytometry; conditions: Day 20; 1 μM IWP-3 with 10 ng/mL VEGF Day 4 to Day 8; no dissociation/reaggregation
Experimental: Three days before differentiation induction (Day −3), the 201B7 cell line was treated with Collagenase type B solution (Roche) for 5 minutes, and the solution was then removed, followed by treating the cells with 0.25% trypsin-EDTA (Invitrogen) for 2 to 3 minutes. After washing the cells with PBS solution (Nacalai Tesque), the obtained iPS cells were detached with a cell scraper and recovered. The iPS cells were then plated on a well of a Matrigel-coated 6-well plate, and cultured in MEF (mouse fetal fibroblast)-conditioned medium (MEF-CM) for 3 days.
Subsequently (Day 0), treatment with Collagenase type B solution was carried out for 10 minutes. After removing the solution, the iPS cells were treated with 0.25% trypsin-EDTA for 1 to 2 minutes, and then detached with a cell scraper. STEMPRO 34 (Invitrogen) supplemented with 1% L-glutamine (Invitrogen), 150 μg/mL transferrin (Roche), 50 μg/mL ascorbic acid (Sigma), 3.9×10^−3% MTG (1-Thyoglycerol) (Sigma), 10 μM Rock inhibitor (Y-27632, Wako), and 2 ng/mL BMP4 (R&D) was added to the cells, and the cells were then divided into small clusters by pipetting. The resulting cell clusters were transferred to a well of a low-adhesion […], and culture was carried out at 37° C. under 5% oxygen to prepare embryoid bodies (EBs). […]
(§1) After the culture (Day 20), the obtained cells were evaluated. […]

[2] = system: 427F1, 610B1, 604A1, 648A1 and KhES3 cell lines; assay: IW and IWDS methods, timing of dissociation/reaggregation (2); conditions: IW method; dissociation at d2.5 to d4; evaluated at d15
Excerpt: (§2) In the modified method for inducing cardiomyocytes (IW) and the IWDS method described above, the timing of the dissociation into single cells and the reaggregation carried out on Day 4 was changed to investigate the effect of the change on pluripotent stem cell lines (KhES1 cell line, KhES3 cell line, MYH cell line, 409B2 cell line, 427F1 cell line, 606A1 cell line, 610B1 cell line, 457C1 cell line, 604A1 cell line, and 648A1 cell line) (FIG. 8). The culture from Day 1 in STEMPRO 34 supplemented with 1% L-glutamine, 150 μg/mL transferrin, 50 μg/mL ascorbic acid, 3.9×10^−3% MTG, 18 ng/mL BMP4, 10 ng/mL bFGF, and 12 ng/mL activin A was carried out for various periods within the range of 1.5 days to 5 days. Thereafter, dissociation and reaggregation of the obtained cells were carried out. That is, dissociation of each cell line was carried out at various times between Day 2.5 (d2.5) and Day 6 (d6) after the induction at intervals of 6 hours, followed by reaggregation culture.
(§3) In the last step, the cells of each cell line were cultured under normal oxygen concentration until d15 in STEMPRO 34 supplemented with 1% L-glutamine, 150 μg/mL transferrin, 50 μg/mL ascorbic acid, 3.9×10^−3% MTG, 10 ng/mL VEGF, and 5 ng/mL bFGF, and evaluated based on the content of cTNT-positive cells.

[3] = system: MYH, 409B2, 606A1, 457C1 and KhES1 cell lines; assay: as above; conditions: IW method; dissociation at d2.5 to d5; evaluated at d15
Excerpt: as §2, §3

[4] = system: 201B7 cell line (iPS cells); assay: Modified method for inducing cardiomyocytes (IW); cTNT-positive cells by flow cytometry; conditions: Day 20
Experimental: After treatment of the 201B7 cell line with CTK solution (ReproCELL) for 2 minutes, the solution was removed. Subsequently, the cells were treated with Accumax (Innovative Cell Technologies) for 5 minutes, and dissociated into single cells by pipetting. The cells were recovered by centrifugation, and plated on a low-adhesion 96-well dish (Corning) at 2500 cells/well. Culture was carried out at 37° C. under 5% oxygen in STEMPRO 34 supplemented with 1% L-glutamine, 150 μg/mL transferrin, 50 μg/mL ascorbic acid (Sigma), 3.9×10^−3% MTG, 10 μM Rock inhibitor, 2 ng/mL BMP4 (R&D), and 0.50% Matrigel (Growth Factor Reduced), to allow formation of EBs (Day 0). It was found, in this culture, that the efficiency of induction of cardiomyocytes decreases in cases where the EB cells are formed from not more than 1000 cells or not less than 4000 cells per well.
On the next day (Day 1), an equal volume of STEMPRO 34 supplemented with 1% L-glutamine, 150 μg/mL transferrin, 50 μg/mL ascorbic acid, 3.9×10^−3% MTG, 18 ng/mL BMP4, 10 ng/mL bFGF, and 12 ng/mL activin A was added to the 96-well plate in which the EBs were cultured, and culture was carried out at 37° C. under 5% oxygen for 3 days.
Subsequently (Day 4), the obtained EBs were allowed to naturally precipitate, and the medium was removed. […]
as §1

Cc1ccc2nc(NC(=O)CSc3nc4c(c(=O)n3-c3ccc(F)cc3)SCC4)sc2c1 [IWP-3]
content of cTNT-positive cells [1]: 58.6%
efficiency of cardiomyocyte induction (content of cTNT-positive cells) [2]: high efficiency
efficiency of cardiomyocyte induction (content of cTNT-positive cells) [3]: high efficiency
content of cTNT-positive cells ([4]; dissociation/reaggregation on Day 4, 1 μM IWP-3 with 10 ng/mL VEGF for 4 days): 82.9%
content of cTNT-positive cells ([4]; no dissociation into single cells on Day 4, medium with 1 μM IWP-3 and 10 ng/mL VEGF): 69.3%
